Experimental data from the supplement of paper PMC11208160.

Experiment: recombinant barcode read abundance after kanamycin selection (control-corrected) (log10(CPM+1)); higher = more efficient recombination; sequences stand for … in AGTGCAGAGAAAATCGGCCAGTTTTCTCTGCCTGCAGTCCGCATGCCGT…AGATTTATGCAGCGGACTGCCTTTCTCCCAAAGTGATAAACCGGACAGTATCATGGACCGGTTTTCCCGGTAATCCGTATTTGCAAGGTTGGTTTCACT; site = the 11-nt target
Procedure, shortened: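 IS621 bridge RNA target-binding loops were paired with targets in a pooled library tested in E. coli. After co-electroporation with a donor plasmid, cells were plated in two replicates on chloramphenicol/ampicillin LB agar (control) and on chloramphenicol/ampicillin/kanamycin carrying 0.1 mM IPTG. Barcodes at recombinant junctions were counted as counts per million, averaged and control-corrected to give recombination efficiency. Values are log10(CPM+1).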
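Further: IS621 recombinase and bridge RNA in Escherichia coli cells.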

Row | Sequence | recombinant barcode read abundance (log10)
1 | GCAAGTCCTTGGGTTCTAACCTGTTGCGT (site CATGCCTCTCG) | 0.0651
2 | GCAAGTCCTTGGGTTCTAACCTGTTGCGT (site GCAAGTCCTAC) | 2.47
3 | GCAAGTTCTTGGGTTCTAACCTGTTGCCT (site GAAAGTTCTAG) | 0.113
4 | GCAAGTTCTTGGGTTCTAACCTGTTGCCT (site GCAAGTTCTAG) | 1.33
5 | GCAAGTTCTTGGGTTCTAACCTGTTGCCT (site GGAAGTTCTAG) | 0.172
6 | GCAAGTTCTTGGGTTCTAACCTGTTGCCT (site GTAAGTTCTAG) | 0.229
7 | GCAATATCTTGGGTTCTAACCTGTTGCCT (site AAGTCTCCTCT) | 0.0108
8 | GCAATATCTTGGGTTCTAACCTGTTGCCT (site GCAATATCTAG) | 1.26
9 | GCACAACCTTGGGTTCTAACCTGTTGCCT (site GCACAACCTAG) | 1.89
10 | GCACAACCTTGGGTTCTAACCTGTTGCCT (site GCACCACCTAG) | 0.0258
11 | GCACAACCTTGGGTTCTAACCTGTTGCCT (site GCACGACCTAG) | 0.214
12 | GCACAACCTTGGGTTCTAACCTGTTGCCT (site GCACTACCTAG) | 0.0085
13 | GCACACACTTGGGTTCTAACCTGTTGCTG (site GAACACACTCG) | 0
14 | GCACACACTTGGGTTCTAACCTGTTGCTG (site GCACACACTCA) | 2.5
15 | GCACACTCTTGGGTTCTAACCTGTTGCCT (site GCACACTCTAG) | 2.43
16 | GCACACTCTTGGGTTCTAACCTGTTGCCT (site GCACCCTCTAG) | 0.128
17 | GCACACTCTTGGGTTCTAACCTGTTGCCT (site GCACGCTCTAG) | 0
18 | GCACACTCTTGGGTTCTAACCTGTTGCCT (site GCACTCTCTAG) | 0.261
19 | GCACATTCTTGGGTTCTAACCTGTTGCCT (site GCACATACTAG) | 0.0258
20 | GCACATTCTTGGGTTCTAACCTGTTGCCT (site GCACATTCTAG) | 1.17
21 | GCACCCTCTTGGGTTCTAACCTGTTGCCT (site GCACACTCTAG) | 0.0655
22 | GCACCCTCTTGGGTTCTAACCTGTTGCCT (site GCACCCTCTAG) | 2.67

Row | Sequence | recombinant barcode read abundance (log10)
23 | GCACCCTCTTGGGTTCTAACCTGTTGCCT (site GCACGCTCTAG) | 0.0715
24 | GCACCCTCTTGGGTTCTAACCTGTTGCCT (site GCACTCTCTAG) | 0.0191
25 | GCACGTGCTTGGGTTCTAACCTGTTGCCT (site GCACGTGCTAG) | 0.624
26 | GCACGTGCTTGGGTTCTAACCTGTTGCCT (site GCCCGTGCTAG) | 0.141
27 | GCACGTGCTTGGGTTCTAACCTGTTGCCT (site GCGCGTGCTAG) | 0.0268
28 | GCACGTGCTTGGGTTCTAACCTGTTGCCT (site GCTCGTGCTAG) | 0.0446
29 | GCACTAGCTTGGGTTCTAACCTGTTGCGT (site GCACTAACTAG) | 0.17
30 | GCACTAGCTTGGGTTCTAACCTGTTGCGT (site GCACTAGCTAC) | 2.54
31 | GCAGCCTCTTGGGTTCTAACCTGTTGCGT (site ATGTGAACTCA) | 0.00651
32 | GCAGCCTCTTGGGTTCTAACCTGTTGCGT (site GCAGCCTCTAC) | 2.08
33 | GCAGCTACTTGGGTTCTAACCTGTTGCTG (site ACAGCTACTAA) | 0.0295
34 | GCAGCTACTTGGGTTCTAACCTGTTGCTG (site GCAGCTACTCA) | 0.694
35 | GCATCCTCTTGGGTTCTAACCTGTTGCCA (site AGGAGTACTAA) | 0.146
36 | GCATCCTCTTGGGTTCTAACCTGTTGCCA (site GCATCCTCTTG) | 0.584
37 | GCATGTCCTTGGGTTCTAACCTGTTGCAT (site GAATGTCCTAT) | 0.128
38 | GCATGTCCTTGGGTTCTAACCTGTTGCAT (site GCATGTCCTAT) | 1.37
39 | GCCAAACCTTGGGTTCTAACCTGTTGCCT (site GCCAAACCTAG) | 0.0479
40 | GCCAAACCTTGGGTTCTAACCTGTTGCCT (site GCCACACCTAG) | 0.0741
41 | GCCAAACCTTGGGTTCTAACCTGTTGCCT (site GCCAGACCTAG) | 0.458
42 | GCCAAACCTTGGGTTCTAACCTGTTGCCT (site GCCATACCTAG) | 0.184
43 | GCCAACCCTTGGGTTCTAACCTGTTGCGT (site GCCAACCCTAA) | 0.212
44 | GCCAACCCTTGGGTTCTAACCTGTTGCGT (site GCCAACCCTAC) | 0.276

Row | Sequence | recombinant barcode read abundance (log10)
45 | GCCAACCCTTGGGTTCTAACCTGTTGCGT (site GCCAACCCTAG) | 0.149
46 | GCCAACCCTTGGGTTCTAACCTGTTGCGT (site GCCAACCCTAT) | 0.162
47 | GCCACTCCTTGGGTTCTAACCTGTTGCGT (site GCCACTCCTAC) | 0.297
48 | GCCACTCCTTGGGTTCTAACCTGTTGCGT (site GTCAATCCTAC) | 0.185
49 | GCCATTACTTGGGTTCTAACCTGTTGCCT (site GCCATAACTAG) | 0.0468
50 | GCCATTACTTGGGTTCTAACCTGTTGCCT (site GCCATCACTAG) | 0.0409
51 | GCCATTACTTGGGTTCTAACCTGTTGCCT (site GCCATGACTAG) | 0.297
52 | GCCATTACTTGGGTTCTAACCTGTTGCCT (site GCCATTACTAG) | 0.0923
53 | GCCATTCCTTGGGTTCTAACCTGTTGCAT (site AGAGCCACTTA) | 0.0467
54 | GCCATTCCTTGGGTTCTAACCTGTTGCAT (site GCCATTCCTAT) | 0.347
55 | GCCCATGCTTGGGTTCTAACCTGTTGCGG (site CATTTCACTAG) | 0.144
56 | GCCCATGCTTGGGTTCTAACCTGTTGCGG (site GCCCATGCTCC) | 2.05
57 | GCCGACCCTTGGGTTCTAACCTGTTGCCG (site GCCGACCCTCG) | 0.492
58 | GCCGACCCTTGGGTTCTAACCTGTTGCCG (site GCCTACCCTCC) | 0.0507
59 | GCCGAGACTTGGGTTCTAACCTGTTGCCT (site GCCGAAACTAG) | 0.48
60 | GCCGAGACTTGGGTTCTAACCTGTTGCCT (site GCCGACACTAG) | 0.0133
61 | GCCGAGACTTGGGTTCTAACCTGTTGCCT (site GCCGAGACTAG) | 0.34
62 | GCCGAGACTTGGGTTCTAACCTGTTGCCT (site GCCGATACTAG) | 0.121
63 | GCCGAGTCTTGGGTTCTAACCTGTTGCTT (site GCCGAGTCTAA) | 0.688
64 | GCCGAGTCTTGGGTTCTAACCTGTTGCTT (site GCCGAGTCTCA) | 0.0689
65 | GCCGAGTCTTGGGTTCTAACCTGTTGCTT (site GCCGAGTCTGA) | 0.0417
66 | GCCGAGTCTTGGGTTCTAACCTGTTGCTT (site GCCGAGTCTTA) | 0.6
